Measurements from ChEMBL document CHEMBL3272306, “Synthesis and antimicrobial activity of some novel heterocycles. Azolo-as-triazines” (1976).
In brackets after ≈: the same amount, converted by molar mass.

Experiments:
Type in all cases: functional
[1] = system: Escherichia coli; assay: Antibacterial activity against clinical isolate Escherichia coli assessed as prevention of visible growth at 25 degC after 24 hrs by broth dilution assay
[2] = system: Pseudomonas aeruginosa; assay: Antibacterial activity against clinical isolate Pseudomonas aeruginosa assessed as prevention of visible growth at 25 degC after 24 hrs by broth dilution assay
[3] = system: Staphylococcus aureus; assay: Antibacterial activity against clinical isolate Staphylococcus aureus assessed as prevention of visible growth at 25 degC after 24 hrs by broth dilution assay
[4] = system: Candida albicans; assay: Antifungal activity against clinical isolate Candida albicans assessed as prevention of visible growth at 25 degC after 24 hrs by broth dilution assay
[5] = system: Trichophyton mentagrophytes; assay: Antifungal activity against clinical isolate Trichophyton mentagrophytes assessed as prevention of visible growth at 30 degC after 48 hrs by broth dilution assay

Row | SMILES | MIC [1] | MIC [2] | MIC [3] | MIC [4] | MIC [5]
1 | CCCc1c(C(=O)OCC)nnc2ccnn12 | > 400 µM | > 400 µM | > 400 µM | > 400 µM | > 400 µM
2 | Cc1cnnc2ccnn12 | > 400 µM | > 400 µM | > 400 µM | > 400 µM | > 400 µM
3 | CCC(=O)c1nnc2cc(-c3ccc(OC)cc3)nn2c1CC | > 400 µM | > 400 µM | > 400 µM | > 400 µM | > 400 µM
4 | CCCC(=O)c1nnc2c(-c3ccc(Cl)cc3)cnn2c1CCC | > 400 µM | 400 µM (≈ 137 µg/mL) | – | – | –
5 | CCCc1cnnc2c(Br)cnn12 | > 400 µM | > 400 µM | > 400 µM | > 400 µM | > 400 µM
6 | Cc1cnnc2c(Br)cnn12 | > 400 µM | > 400 µM | > 400 µM | > 400 µM | > 400 µM
7 | CCC(=O)c1nnc2nccn2c1CC | > 400 µM | > 400 µM | > 400 µM | > 400 µM | > 400 µM
8 | Cc1nnc2ccnn2c1C | > 400 µM | > 400 µM | > 400 µM | > 400 µM | > 400 µM
9 | CCCC(=O)c1nnc2nccn2c1CCC | > 400 µM | > 400 µM | > 400 µM | > 400 µM | > 400 µM
10 | CCCC(=O)c1nnc2ncnn2c1CCC | > 400 µM | > 400 µM | > 400 µM | > 400 µM | > 400 µM
11 | N#Cc1nnc2ccnn2c1N | > 400 µM | > 400 µM | > 400 µM | > 400 µM | > 400 µM
12 | CCCc1cnnc2ccnn12 | > 400 µM | > 400 µM | > 400 µM | > 400 µM | > 400 µM
13 | CCC(=O)c1nnc2ccnn2c1CC | > 400 µM | > 400 µM | > 400 µM | > 400 µM | > 400 µM
14 | CCOC(=O)c1nnc2ccnn2c1N | > 400 µM | 160 µM (≈ 33.2 µg/mL) | – | – | –
15 | CCCC(=O)c1nnc2nc(NC)nn2c1CCC | > 400 µM | > 400 µM | > 400 µM | > 400 µM | > 400 µM
16 | Cc1nnc2nccn2c1C | > 400 µM | > 400 µM | > 400 µM | > 400 µM | > 400 µM
17 | Cc1nnc2c(Br)cnn2c1C | > 400 µM | > 400 µM | > 400 µM | > 400 µM | > 400 µM
18 | CCCC(=O)c1nnc2nc(S(=O)(=O)Cc3ccccc3)nn2c1CCC | > 400 µM | > 400 µM | > 400 µM | > 400 µM | > 400 µM
19 | CCCC(=O)c1nnc2nc(SCc3ccccc3)nn2c1CCC | > 400 µM | – | 400 µM (≈ 142 µg/mL) | – | –

Other lines, results leading:

Row | MIC [1] | MIC [2] | MIC [3] | MIC [4] | MIC [5] | SMILES
20 | > 400 µM | > 400 µM | > 400 µM | > 400 µM | > 400 µM | CCCC(=O)c1nnc2c(C(N)=O)ncn2c1CCC
21 | > 400 µM | > 400 µM | > 400 µM | > 400 µM | > 400 µM | CCC(=O)c1nnc2c(C(N)=O)cnn2c1CC
22 | > 400 µM | > 400 µM | > 400 µM | > 400 µM | > 400 µM | CCC(=O)c1nnc2c(C(N)=O)ncn2c1CC
23 | > 400 µM | – | – | – | 160 µM (≈ 45.3 µg/mL) | CCC(=O)c1nnc2c(Br)cnn2c1CC
24 | > 400 µM | > 400 µM | > 400 µM | > 400 µM | > 400 µM | CCOC(=O)c1nnc2nccn2c1N
25 | > 400 µM | – | 400 µM (≈ 111 µg/mL) | – | – | CCCC(=O)c1nnc2c(C(N)=O)nnn2c1CCC
26 | > 400 µM | – | – | 400 µM (≈ 122 µg/mL) | – | CCCC(=O)c1nnc2c(C(=O)OCC)cnn2c1CCC
27 | > 400 µM | > 400 µM | > 400 µM | > 400 µM | > 400 µM | CC(=O)c1nnc2ccnn2c1C
28 | > 400 µM | > 400 µM | > 400 µM | > 400 µM | > 400 µM | CCCC(=O)c1nnc2c(C(N)=O)cnn2c1CCC
29 | > 400 µM | > 400 µM | > 400 µM | > 400 µM | > 400 µM | CC(=O)c1nnc2c(C(N)=O)ncn2c1C
